Read-outs that look alike come from different tables or passages of the source.
Legend:
[1] = cited from earlier work
[2] = In vivo pharmacokinetic study of DCCTX and Gom A in rats; details: Sprague-Dawley, rat, plasma, iv, 300 mg/kg; for AUC(0-t): read-out: AUC0–8h; for MRT last: read-out: MRT0–8h
Protocol: Rats were randomly divided into five groups (groups 1−5, n = 6), respectively. To determine the short- and long-term effect of single-dose Gom A pretreatment on CYP3A metabolism of CTX, Gom A and CTX were administered to rats with different time intervals in groups 2−5. In brief, rats in group 1 (CTX alone group) were i.g. administered with saline (10 mL/kg, vehicle control), and rats in groups 2−5 were given Gom A (i.g.) at the dose of 20.8 mg/kg (50 μmol/kg). Rats in group 1 were intravenously (i.v.) administered with CTX (300 mg/kg) 0.5 h after saline administration. In groups 2–5, rats were given CTX (i.v.) 0.5, 6, 24 and 72 h after Gom A pretreatment, respectively. Mesna was injected (420 mg/kg, i.v.) 1 hour after CTX administration in all groups to prevent bladder injury in accordance with clinical practice.
Blood samples were collected from the postocular vein at 0.083, 0.25, 0.5, 1, 2, 3, 4, 6, 8, 12 and 24 h after CTX injection. Samples were transferred to heparin tubes and centrifuged at 5000 rpm for 15 min. Plasma was obtained and stored at −20 °C until required for further analysis.
UHPLC-MS/MS method (I): 6OH-Tes concentrations were analyzed according to the previous reports with slight modifications (Supplementary Figure S3). The terminated sample were centrifuged at 14,000 rpm for 10 min, 10 μL of each supernatant was injected into the UHPLC-MS/MS system for analysis. In general, an Agilent Elipse Plus 2.1 × 50 mm column packed with 1.8 µm C18 was applied. The column temperature was set as 30 °C at a flow rate of 0.3 mL/min. The mobile phase was consisted of aqueous 1% formic acid with the addition of 10 mM ammonium acetate solution (A) and methanol (B) with the gradient elution program set as follow: 5–50–80% B from 0–1–4 min. The ion transitions were m/z 305.0→269.0 for 6OH-Tes and m/z 181.0→111.0 for phenacetin (IS-I). UHPLC-MS method (II): DCCTX concentrations were determined using our previously developed UHPLC-MS/MS method (Supplementary Figure S4). For pharmacokinetic study, plasma samples were diluted 30-fold with plasma from drug-free rats. After vortexing for 2 min, 100 μL of each diluted sample was mixed with 400 μL acetonitrile (containing 6 ng/mL TNZ (IS-II), vortexed, and centrifuged at 14,000 rpm for 10 min. 100 μL supernatant of each sample was mixed with 400 μL aqueous solution containing 10% acetonitrile followed by a rough centrifugation. For HLMs inhibition study, samples were vortexed for 1 min after reaction termination, and the mixture was then centrifuged at 14,000 rpm for 10 min. After centrifugation, the obtained supernatant (5 μL) was injected into the UHPLC-MS/MS system, using methanol/10 mM ammonium acetate aqueous solution as the mobile phase at a flow rate of 0.25 mL/min. The ion transitions were set as m/z 199.2→78 for DCCTX and m/z 248.1→121.1 for TNZ (IS-II). UHPLC-MS/MS method (III): Gom A concentrations were determined using slightly modified LC/MS method which developed by our laboratory. Briefly, a 100 µL plasma sample was transferred to a 10 mL centrifuge tube with addition of 20 µL IS solution and 20 µL water/acetonitrile (90:10, v/v), vortexed for 30 s and then extracted using 3 mL methyl tertiary butyl ether. After extraction, the sample was centrifuged at 5000 rpm for 10 min. The organic layer was quantitatively transferred to a 5 mL glass tube and evaporated to dryness at 35 °C. Then the dried extract was reconstituted in 100 µL solvent (water–acetonitrile, 20:80, v/v) followed by injection of 10 µL aliquot into LC-MS/MS system. Separation was performed on a Zorbax SB-C18 reserved-phase column (100 mm × 2.1 mm i.d., 3.5 µm) with the mobile phase consisting of acetonitrile, methanol and water −0.1% formic acid (72:18:10, v/v/v) at a flow rate of 0.3 mL/min. The ion transitions were set as m/z 399→329 for Gom A and m/z 387.0→145.0 for bifendate (IS-III). […]

[3] = Group 1: CTX 300 mg/kg i.v. alone (saline 0.5 h before)
[4] = Group 2: CTX 300 mg/kg i.v. 0.5 h after Gom A 20.8 mg/kg i.g.
[5] = Group 3: CTX 300 mg/kg i.v. 6 h after Gom A 20.8 mg/kg i.g.
[6] = Group 4: CTX 300 mg/kg i.v. 24 h after Gom A 20.8 mg/kg i.g.
[7] = Group 5: CTX 300 mg/kg i.v. 72 h after Gom A 20.8 mg/kg i.g.

## O=P1(N(CCCl)CCCl)NCCCO1 (stereo not drawn) [CTX, cyclophosphamide]
[1]
  plasma protein binding rate: approximately 9%

## O=P1(NCCCl)NCCCO1 (stereo not drawn) [DCCTX, 2-dechloroethylcyclophosphamide]
[2]; [3]
  Cmax: 8600 ± 1300 ng/mL
  Tmax: 2 ± 0.1 h
  half-life: 2.2 ± 0.5 h
  AUC(0-t): 32500 ± 8400 ng·h/mL
  MRT last: 3.3 ± 0.2 h
[2]; [4]
  Cmax: 1900 ± 200 ng/mL
  Tmax: 2.9 ± 0.6 h
  half-life: 3.1 ± 0.9 h
  AUC(0-t): 8900 ± 300 ng·h/mL
  MRT last: 3.8 ± 0.2 h
[2]; [5]
  Cmax: 2600 ± 500 ng/mL
  Tmax: 3.7 ± 0.8 h
  half-life: 3.2 ± 0.8 h
  AUC(0-t): 11800 ± 2500 ng·h/mL
  MRT last: 4.2 ± 0.1 h
[2]; [6]
  Cmax: 16200 ± 1200 ng/mL
  Tmax: 2 ± 0.1 h
  half-life: 2 ± 0.4 h
  AUC(0-t): 65900 ± 12400 ng·h/mL
  MRT last: 3.3 ± 0.2 h
[2]; [7]
  Cmax: 20000 ± 3100 ng/mL
  Tmax: 3.3 ± 0.5 h
  half-life: 3.8 ± 1.2 h
  AUC(0-t): 79200 ± 19100 ng·h/mL
  MRT last: 3.7 ± 0.2 h

## C=CC[C@@H]1/C=C(\C)C[C@H](C)C[C@H](OC)[C@H]2O[C@@](O)(C(=O)C(=O)N3CCCC[C@H]3C(=O)O[C@H](/C(C)=C/[C@@H]3CC[C@@H](O)[C@H](OC)C3)[C@H](C)[C@@H](O)CC1=O)[C@H](C)C[C@@H]2OC [Tacrolimus]
[1]
  plasma protein binding: strongly bound to plasma protein

From publication PMC6152024 (Molecules : A Journal of Synthetic Chemistry and Natural …, 2017)
